Measured values: patent publication US20140303199A1, “INHIBITORS OF RGS PROTEINS” (priority 2013, published 2014)
Where a name gives a salt, the structure may show the parent alone.

How the values were obtained:
RGS4(Δ7) mutant = target: T1, RGS4(Δ7) mutant (Rattus norvegicus, UniProt P49799, C132A/C148A/C183A/C197A/C204A/C71A/C95A); experiment: Malachite green assay counter screen against cysteine-null RGS4(Δ7) mutant; assay type: biochemical; settings: for IC50: concentration-response; for Inhibition of RGS4(Δ7) mutant (in words): screen hits
T1 construct: fused to the N-terminus of an RGS4 construct containing amino acids 51-205; 10x His tag (N, cleaved yes); TEV protease recognition site (N, cleaved yes); made in house; host or cells: E. coli BL21-DE3 (vector pMALC2H10T)
T1 sequence (P49799 51-205 C71A/C95A/C132A/C148A/C183A/C197A/C204A limits assumed): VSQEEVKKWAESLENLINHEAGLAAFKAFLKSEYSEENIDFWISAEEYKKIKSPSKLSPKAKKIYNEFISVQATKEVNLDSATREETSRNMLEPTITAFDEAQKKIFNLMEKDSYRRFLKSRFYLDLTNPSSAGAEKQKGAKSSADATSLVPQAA
From the text: Rat RGS4, sharing 97% sequence identity with human RGS4, and the cysteine to alanine mutant were expressed as fusion proteins of maltose binding protein (MBP), a 10× His tag, and a TEV protease recognition site fused to the N-terminus of an RGS4 construct containing amino acids 51-205, in the vector pMALC2H10T in BL21-DE3 bacteria (Stratagene; Santa Clara, Calif.). The single cysteine-null Δ51-RGS4 construct was generated by site-directed mutagenesis as described previously Expression and purification were performed as described previously. Purified protein was incubated with TEV protease at a molar ratio of 10:1 (fusion protein:TEV protease) overnight at 4° C. The cleaved Δ51-RGS4 was then isolated by purification over an ANX column (GE Healthcare; Fairfield, Conn.) in 50 mM HEPES at pH6.8 and 50 mM NaCl. The flow through, containing the ˜99% Δ51-RGS4 as determined by SDS-PAGE gel, was then collected and concentrated using a YM-10 centrifugal concentrator (Millipore; Billerica, Mass.). The concentration of Δ51-RGS4 was calculated based on the absorbance at 280 nm utilizing a Take-3 plate (Biotek; Winnoski, Vt.) in a Synergy 2 plate reader (Biotek; Winnoski, Vt.).
Stock solutions of each of the 3 components of the developing solution were prepared, which were stable for long-term storage. Malachite solution was prepared by first diluting concentrated sulfuric acid 1:5 in distilled water. Once the solution cooled to 25° C., malachite solution was prepared by dissolving 0.44 g of malachite green oxalate (Alfa Aesar; Ward Hill, Mass.) in 360 mL diluted acid and stored at 25° C. Molybdate solution, containing 7.5% ammonium molybdate tetrahydrate (Alfa Aesar; Ward Hill, Mass.), was prepared in distilled water and stored at 4° C. Tween-20 solution, used to maintain solubility of the phosphate-molybdate-malachite complex, was prepared as 11% (v/v) Tween-20 in distilled water. On the day of use, 2.5 mL molybdate solution and 0.2 mL Tween-20 solution were added to 10 mL of malachite solution and mixed quickly to avoid precipitation of malachite. The final ratio of the Developing Solution (DS) was 50:12.5:1 (malachite:molybdate:Tween-20). The peak absorbance was determined by a 2 nm step wavelength scan, using 50 μM NaH2PO4 at pH 8.0 as the negative control.
Malachite green compound activity and Z-factor analysis conducted in 384-well plates utilized optimized parameters as discerned from the time-course experiments. 10 μL of 4× compound or MGB was dispensed into appropriate wells. For single point assay, 160 μM compound was used, and for dose-response assays a series of ½ log dilutions from 100 μM final to […] final was used. 10 μL of the optimized 4×RGS4 concentration, 0.8 μM in MGB, was dispensed into all wells. After a spin down at 100×g for 1 min, the assay plate was incubated at 25° C. for 30 min. 10 μL of the optimized Gαi concentration, 20 μM in MGB, was dispensed to each well and incubated at 25° C. for 5 min. 10 μL of the optimized 4×GTP, 600 μM in MGB, was then added to the samples. […] The samples were then stamped with 10 μL of DS and incubated for 25 min before reading absorbance at 642 nm.
Initial hits were confirmed by single point malachite green assay at 40 μM compound. […] This control would detect compounds that either interrupt the detected complex or reduce the molybdate resulting in peak shift outside of the desired wavelength. […] Compounds that increased the predicted absorbance were carried through, as they would indicate false negatives in the assay. […]

RGS4(WT) = target: T2, RGS4(WT) (Rattus norvegicus, UniProt P49799); experiment: Malachite green assay of RGS4-stimulated Gαi GTPase activity; assay type: biochemical; settings: for IC50 / Inhibition of RGS4 (in words): malachite green assay; for IC50: RGS4 200 nM final, concentration-response, read-out: IC50 against RGS4(WT); for Inhibition of RGS4 (in words): screen hits; for Mean absorbance at 642 nm, positive control wells: 10 μM final
T2 sequence (P49799 51-205): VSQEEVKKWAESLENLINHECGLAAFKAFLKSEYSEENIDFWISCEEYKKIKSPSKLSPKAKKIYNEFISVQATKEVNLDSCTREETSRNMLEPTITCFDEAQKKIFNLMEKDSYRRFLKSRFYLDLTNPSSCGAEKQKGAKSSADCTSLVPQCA
Method: Stock solutions of each of the 3 components of the developing solution were prepared, which were stable for long-term storage [19]. Malachite solution was prepared by first diluting concentrated sulfuric acid 1:5 in distilled water. Once the solution cooled to 25° C., malachite solution was prepared by dissolving 0.44 g of malachite green oxalate (Alfa Aesar; Ward Hill, Mass.) in 360 mL diluted acid and stored at 25° C. Molybdate solution, containing 7.5% ammonium molybdate tetrahydrate (Alfa Aesar; Ward Hill, Mass.), was prepared in distilled water and stored at 4° C. Tween-20 solution, used to maintain solubility of the phosphate-molybdate-malachite complex, was prepared as 11% (v/v) Tween-20 in distilled water. On the day of use, 2.5 mL molybdate solution and 0.2 mL Tween-20 solution were added to 10 mL of malachite solution and mixed quickly to avoid precipitation of malachite. The final ratio of the Developing Solution (DS) was 50:12.5:1 (malachite:molybdate:Tween-20). The peak absorbance was determined by a 2 nm step wavelength scan, using 50 μM NaH2PO4 at pH 8.0 as the negative control.
The malachite green assay involved 5 components, with a 1 min spin at 100×g between each addition. For time-course experiments, the first component was 10 μL Malachite Green Assay Buffer (MGB; 50 mM HEPES at pH 7.5, 100 mM NaCl, 5 mM EDTA, 10 mM MgCl2, 0.01% lubrol) into a clear 384-well plate (ThermoFisher Scientific; Waltham, Mass.) using a MultiDrop dispenser (PerkinElmer; Waltham, Mass.). The second component dispensed was 10 μL of a 4× stock of RGS4, typically 200 nM to 1.6 μM with the target final concentration of 50 nM to 400 nM, diluted in MGB. After a 30 min incubation, 10 μL of the third component, 4× stock of Gαi diluted in MGB, was dispensed (typically between 4 μM and 80 μM with a desired final concentration 1 μM to 20 μM). After a minimum of 5 min incubation, 10 μL of the fourth component, 4×GTP diluted in MGB, was added at 10 minute intervals from 1-110 minutes. 4×GTP concentrations varied between 0.2 mM and 2.4 mM, with a target final concentration of 50 μM to 600 μM. To terminate the reaction, 10 μL of DS was added to each well using a Microlab Star liquid handling robot (Hamilton Robotics; Reno, Nev.), to achieve a final ratio 4:1 (sample:developing solution). Following the spin, the plate was incubated for 25 min before being read at 642 nm for absorbance using an EnVision plate reader (PerkinElmer; Waltham, Mass.).
Malachite green compound activity and Z-factor analysis conducted in 384-well plates utilized optimized parameters as discerned from the time-course experiments. 10 μL of 4× compound or MGB was dispensed into appropriate wells. For single point assay, 160 μM compound was used, and for dose-response assays a series of ½ log dilutions from 100 μM final to 316 μM final was used. 10 μL of the optimized 4×RGS4 concentration, 0.8 μM in MGB, was dispensed into all wells. After a spin down at 100×g for 1 min, the assay plate was incubated at 25° C. for 30 min. 10 μL of the optimized Gαi concentration, 20 μM in MGB, was dispensed to each well and incubated at 25° C. for 5 min. 10 μL of the optimized 4×GTP, 600 μM in MGB, was then added to the samples. After spinning the samples down at 100×g for 1 min, the samples were incubated at 25° C. for 75 min. The samples were then stamped with 10 μL of DS and incubated for 25 min before reading absorbance at 642 nm.
1536-well Z-factor analysis and compound library screen were accomplished largely as described for 384-well plates. Initial screen and Z-factor determination was performed in a final concentration of 5.5% dimethylsulfoxide. For 1536-well assays NUNC clear plates were used (ThermoFisher Scientific; Waltham, Mass.). Each component was dispensed as 1.8 μL samples into each well using a FlexDrop (PerkinElmer; Waltham, Mass.).

Row | Mean absorbance at 642 nm, positive control wells (RGS4(WT); 384-well plate, 192 wells, negative control mean 1.74) | Mean absorbance at 642 nm, positive control wells (RGS4(WT); 1536-well plate, 5.5% DMSO, 128 wells, negative control mean 0.67) | Structure (SMILES) | IC50 (RGS4(Δ7) mutant) [µM] | IC50 (RGS4(WT)) [µM] | Inhibition of RGS4(Δ7) mutant (in words) (RGS4(Δ7) mutant) | Inhibition of RGS4 (in words) (RGS4(WT))
1 |  |  | CC1=C(O)C(=O)C=C2C1=CC=C1[C@@]2(C)CC[C@@]2(C)[C@@H]3C[C@](C)(C(=O)O)CC[C@]3(C)CC[C@]12C [UI-1590, celastrol] | 88 | 0.724 |  | 
2 |  |  | C[n+]1cc2c3c(ccc2c2ccc4cc5c(cc4c21)OCO5)OCO3 [UI-5, sanguinarium sulfate] | 454 | 126 |  | 
3 |  |  | CC(=O)Oc1c2c(c(CC=C(C)C)c3c1C(=O)C1=C[C@@H]4C[C@H]5C(C)(C)OC(C/C=C(\C)C(=O)O)(C4=O)[C@@]15O3)O[C@](C)(CCC=C(C)C)C=C2 [UI-2034, acetyl-isogambogic acid] |  |  | inhibitors | inhibitors
4 |  |  | CC(C)=CCC[C@]1(C)C=Cc2c(O)c3c(c(CC=C(C)C)c2O1)O[C@]12C(=C[C@@H]4C[C@H]1C(C)(C)O[C@@]2(C/C=C(/C)C(=O)O)C4=O)C3=O [UI-1907, gambogic acid] | 51 | 16 | inhibitors | inhibitors
5 | 0.92 | 0.30 | Cc1ccc(-n2sc(=O)n(Cc3ccc(F)cc3)c2=O)cc1 [CCG-50014, reference compound] |  |  |  | 
